Here are results for 16 compounds from patent US10681908B2, “Molecules having pesticidal utility, and intermediates, compositions, and processes, related thereto” (Dow AgroSciences LLC, priority 2016, dated 2020).

Common to all, as to format: in vivo
Data set [1] relates to Beet Armyworm (Spodoptera exigua, LAPHEG). Description: Bioassay on Beet Armyworm (BAW), 128-well diet tray assay. The following applies: 168 h, 50 μg/cm^2 on artificial diet, second instar larvae, five to seven days, 25° C., read-out: BAW % Control (or Mortality) rating. The essentials: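 Artificial diet was surface-treated with 50 μg/cm^2 of compound in 90:10 acetone-water and dried; one to five second-instar larvae were placed per well, eight wells per treatment. Held at 25 °C, 14:10 light-dark, for five to seven days, then percent mortality per well was averaged.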

Data set [2] relates to Cabbage Looper (Trichoplusia ni, TRIPNI). The experiment in a line: Bioassay on Cabbage Looper (CL), 128-well diet tray assay. The following applies: 168 h, 50 μg/cm^2 on artificial diet, second instar larvae, five to seven days, 25° C., read-out: CL % Control (or Mortality) rating. In a few lines: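 Diet-tray assay: 1–5 second-instar larvae per well on artificial diet surface-treated with 50 μg/cm^2 compound (90:10 acetone-water, dried), eight wells per compound. Held at 25° C., 14:10 light-dark for five to seven days; percent mortality per well averaged across the eight wells.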

The test system of data set [3] is Yellow Fever Mosquito (Aedes aegypti, AEDSAE). The following applies: about 1 day-old larvae, 3 days, room temperature, scored on mortality. As for the experimental part:
Example C: Bioassays on Yellow Fever Mosqurro (Aedes aegypti, AEDSAE) (“YFM”)
Certain molecules disclosed in this document were tested against YFM using procedures described in the following paragraph. In the reporting of the results, the “GPA & YFM Rating Table” was used (See Table Section).
Master plates containing 400 μg of a molecule dissolved in 100 μL of dimethyl sulfoxide (DMSO) (equivalent to a 4000 ppm solution) are used. A master plate of assembled molecules contains 15 μL per well. To this plate, 135 μL of a 90:10 water:acetone mixture is added to each well. A robot (Biomek® NXP Laboratory Automation Workstation) is programmed to dispense 15 μL aspirations from the master plate into an empty 96-well shallow plate (“daughter” plate). There are 6 reps (“daughter” plates) created per master. The created daughter plates are then immediately infested with YFM larvae.
The day before plates are to be treated, mosquito eggs are placed in Millipore water containing liver powder to begin hatching (4 g. into 400 mL). After the daughter plates are created using the robot, they are infested with 220 μL of the liver powder/larval mosquito mixture (about 1 day-old larvae). After plates are infested with mosquito larvae, a non-evaporative lid is used to cover the plate to reduce drying. Plates are held at room temperature for 3 days prior to grading. After 3 days, each well is observed and scored based on mortality. The results are indicated in the table entitled “Table ABC: Biological Results” (See Table Section).

In general, mortality refers to the percentage killed.

Consider `C[C@H](C[S+]([O-])CC(F)(F)F)NC(=O)c1ccc(/C(F)=C/C(c2cc(Cl)c(Br)c(Cl)c2)C(F)(F)F)cc1C(F)(F)F` (stereo partly drawn) [F26, 4-((Z)-3-(4-Bromo-3,5-dichlorophenyl)-1,4,4,4-tetrafluorobut-1-en-1-yl)-N-((2R)-1-((2,2,2-trifluoroethyl)sulfinyl)propan-2-yl)-2-(trifluoromethyl)benzamide], for which the mortality at 50 µg/cm2 in data set [1] and in data set [2] was 50 to 100% each time. Besides, in data set [3], the “YFM % Control (or Mortality) rating” value is given as “A (80-100)”.

On to `C[C@H](C[S+]([O-])CC(F)(F)F)NC(=O)c1ccc(/C(F)=C/C(c2cc(Cl)cc(Cl)c2)C(F)(F)F)cc1C(F)(F)F` (stereo partly drawn) [F27, 4-((Z)-3-(3,5-Dichlorophenyl)-1,4,4,4-tetrafluorobut-1-en-1-yl)-N-((2R)-1-((2,2,2-trifluoroethyl)sulfinyl)propan-2-yl)-2-(trifluoromethyl)benzamide], for which the mortality at 50 µg/cm2 in data set [1] and in data set [2] was 50 to 100% in each case. Moreover, the “YFM % Control (or Mortality) rating” value in data set [3] was “A (80-100)”.

For `C[C@H](C[S+]([O-])CC(F)(F)F)NC(=O)c1ccc(/C(F)=C/C(c2ccc(Cl)c(Cl)c2)C(F)(F)F)cc1C(F)(F)F` (stereo partly drawn) [F28, 4-((Z)-3-(3,4-Dichlorophenyl)-1,4,4,4-tetrafluorobut-1-en-1-yl)-N-((2R)-1-((2,2,2-trifluoroethyl)sulfinyl)propan-2-yl)-2-(trifluoromethyl)benzamide], the mortality at 50 µg/cm2 in data set [1] and in data set [2] was 50 to 100% each time. The “YFM % Control (or Mortality) rating” value in data set [3] is “B (More than 0-Less than 80)”.

As to `C[C@H](CS(=O)(=O)CC(F)(F)F)NC(=O)c1ccc(/C(F)=C/C(c2cc(Cl)c(F)c(Cl)c2)C(F)(F)F)cc1C(F)(F)F` (stereo partly drawn) [F29, 4-((Z)-3-(3,5-Dichloro-4-fluorophenyl)-1,4,4,4-tetrafluorobut-1-en-1-yl)-N—((R)-1-((2,2,2-trifluoroethyl)sulfonyl)propan-2-yl)-2-(trifluoromethyl)benzamide], the mortality at 50 µg/cm2 in data set [1] and in data set [2] was 50 to 100% throughout. For the same compound, the “YFM % Control (or Mortality) rating” value in data set [3] is “A (80-100)”.

Regarding `C[C@H](CSCC(F)(F)F)NC(=O)c1ccc(/C(F)=C/C(c2cc(Br)cc(Br)c2)C(F)(F)F)cc1C(F)(F)F` (stereo partly drawn) [F30, 4-((Z)-3-(3,5-Dibromophenyl)-1,4,4,4-tetrafluorobut-1-en-1-yl)-N—((R)-1-((2,2,2-trifluoroethyl)thio)propan-2-yl)-2-(trifluoromethyl)benzamide], the mortality at 50 µg/cm2 in data set [1] and in data set [2] was 50 to 100% each time. For the same compound, in data set [3], the “YFM % Control (or Mortality) rating” value was “A (80-100)”.

As to `C[C@H](C[S+]([O-])CC(F)(F)F)NC(=O)c1ccc(/C(F)=C/C(c2cc(Br)cc(Br)c2)C(F)(F)F)cc1C(F)(F)F` (stereo partly drawn) [F31, 4-((Z)-3-(3,5-Dibromophenyl)-1,4,4,4-tetrafluorobut-1-en-1-yl)-N-((2R)-1-((2,2,2-trifluoroethyl)sulfinyl)propan-2-yl)-2-(trifluoromethyl)benzamide], the mortality at 50 µg/cm2 in data set [1] and in data set [2] was 50 to 100% each time. In data set [3], the “YFM % Control (or Mortality) rating” value is on record as “B (More than 0-Less than 80)”.

As to `C=Cc1c(Cl)cc(C(/C=C(\F)c2ccc(C(=O)N[C@H](C)CSCC(F)(F)F)c(C(F)(F)F)c2)C(F)(F)F)cc1Cl` (stereo partly drawn) [F32, 4-((Z)-3-(3,5-Dichloro-4-vinylphenyl)-1,4,4,4-tetrafluorobut-1-en-1-yl)-N—((R)-1-((2,2,2-trifluoroethyl)thio)propan-2-yl)-2-(trifluoromethyl)benzamide], the mortality at 50 µg/cm2 in data set [1] and in data set [2] was 50 to 100% in each case. Also, in data set [3], the “YFM % Control (or Mortality) rating” value is recorded as “A (80-100)”.

Regarding `C=Cc1c(Cl)cc(C(/C=C(\F)c2ccc(C(=O)N[C@H](C)CS(=O)(=O)CC(F)(F)F)c(C(F)(F)F)c2)C(F)(F)F)cc1Cl` (stereo partly drawn) [F33, 4-((Z)-3-(3,5-Dichloro-4-vinylphenyl)-1,4,4,4-tetrafluorobut-1-en-1-yl)-N—((R)-1-((2,2,2-trifluoroethyl)sulfonyl)propan-2-yl)-2-(trifluoromethyl)benzamide], the mortality at 50 µg/cm2 in data set [1] and in data set [2] was 50 to 100% each time. The “YFM % Control (or Mortality) rating” value in data set [3] was “A (80-100)”.

Regarding `C=Cc1c(Cl)cc(C(/C=C(\F)c2ccc(C(=O)N[C@H](C)C[S+]([O-])CC(F)(F)F)c(C(F)(F)F)c2)C(F)(F)F)cc1Cl` (stereo partly drawn) [F34, 4-((Z)-3-(3,5-Dichloro-4-vinylphenyl)-1,4,4,4-tetrafluorobut-1-en-1-yl)-N-((2R)-1-((2,2,2-trifluoroethyl)sulfinyl)propan-2-yl)-2-(trifluoromethyl)benzamide], the mortality at 50 µg/cm2 in data set [1] and in data set [2] was 50 to 100% in each case. The “YFM % Control (or Mortality) rating” value in data set [3] is “A (80-100)”.

For `Cc1cc(C(/C=C(\F)c2ccc(C(=O)N[C@H](C)CS(=O)(=O)CC(F)(F)F)c(C(F)(F)F)c2)C(F)(F)F)cc(C)c1Cl` (stereo partly drawn) [F35, 4-((Z)-3-(4-Chloro-3,5-dimethylphenyl)-1,4,4,4-tetrafluorobut-1-en-1-yl)-N—((R)-1-((2,2,2-trifluoroethyl)sulfonyl)propan-2-yl)-2-(trifluoromethyl)benzamide], the mortality at 50 µg/cm2 in data set [1] and in data set [2] was 50 to 100% in each case. In addition, the “YFM % Control (or Mortality) rating” value in data set [3] is on record as “A (80-100)”.

`C[C@H](CSCC(F)(F)F)NC(=O)c1ccc(/C(F)=C/C(c2cc(Cl)c(F)c(Cl)c2)C(F)(F)F)cc1C(F)(F)F` (stereo partly drawn) [F36, 4-((Z)-3-(3,5-Dichloro-4-fluorophenyl)-1,4,4,4-tetrafluorobut-1-en-1-yl)-N—((R)-1-((2,2,2-trifluoroethyl)thio)propan-2-yl)-2-(trifluoromethyl)benzamide]: the mortality at 50 µg/cm2 in data set [1] and in data set [2] was 50 to 100% throughout. Besides, in data set [3], the “YFM % Control (or Mortality) rating” value is reported as “A (80-100)”.

As for `C[C@H](C[S+]([O-])CC(F)(F)F)NC(=O)c1ccc(/C(F)=C/C(c2cc(Cl)c(F)c(Cl)c2)C(F)(F)F)cc1C(F)(F)F` (stereo partly drawn) [F37, 4-((Z)-3-(3,5-Dichloro-4-fluorophenyl)-1,4,4,4-tetrafluorobut-1-en-1-yl)-N-((2R)-1-((2,2,2-trifluoroethyl)sulfinyl)propan-2-yl)-2-(trifluoromethyl)benzamide], the mortality at 50 µg/cm2 in data set [1] and in data set [2] was 50 to 100% throughout. The “YFM % Control (or Mortality) rating” value in data set [3] is given as “A (80-100)”.

`CC[S+]([O-])C[C@@H](C)NC(=O)c1ccc(/C(F)=C/C(c2cc(C)c(Cl)c(C)c2)C(F)(F)F)cc1C(F)(F)F` (stereo partly drawn) [F44, 4-((Z)-3-(4-Chloro-3,5-dimethylphenyl)-1,4,4,4-tetrafluorobut-1-en-1-yl)-N-((2R)-1-(ethylsulfinyl)propan-2-yl)-2-(trifluoromethyl)benzamide]: the mortality at 50 µg/cm2 in data set [1] and in data set [2] was 50 to 100% throughout. In addition, the “YFM % Control (or Mortality) rating” value in data set [3] was “A (80-100)”.

As to `CCS(=O)(=O)C[C@@H](C)NC(=O)c1ccc(/C(F)=C/C(c2cc(Cl)cc(Cl)c2)C(F)(F)F)cc1C(F)(F)F` (stereo partly drawn) [F45, 4-((Z)-3-(3,5-Dichlorophenyl)-1,4,4,4-tetrafluorobut-1-en-1-yl)-N—((R)-1-(ethylsulfonyl)propan-2-yl)-2-(trifluoromethyl)benzamide], the mortality at 50 µg/cm2 in data set [1] and in data set [2] was 50 to 100% each time. Moreover, the “YFM % Control (or Mortality) rating” value in data set [3] is given as “A (80-100)”.

Take `O=C(NCCS(=O)(=O)CC(F)(F)F)c1ccc(/C(F)=C/C(c2cc(Cl)c(Cl)c(Cl)c2)C(F)(F)F)cc1C(F)(F)F` (stereo not drawn) [F49, (Z)-4-(1,4,4,4-tetrafluoro-3-(3,4,5-trichlorophenyl)but-1-en-1-yl)-N-(2-((2,2,2-trifluoroethyl)sulfonyl)ethyl)-2-(trifluoromethyl)benzamide]: the mortality at 50 µg/cm2 in data set [1] and in data set [2] was 50 to 100% throughout. Besides, the “YFM % Control (or Mortality) rating” value in data set [3] is “A (80-100)”.

Turning to `Cc1cc(C(/C=C(\F)c2ccc(C(=O)N[C@H](C)CSCC(F)(F)F)c(C(F)(F)F)c2)C(F)(F)F)cc(C)c1Cl` (stereo partly drawn) [F52, 4-((Z)-3-(4-Chloro-3,5-dimethylphenyl)-1,4,4,4-tetrafluorobut-1-en-1-yl)-N—((R)-1-((2,2,2-trifluoroethyl)thio)propan-2-yl)-2-(trifluoromethyl)benzamide], the mortality at 50 µg/cm2 in data set [1] and in data set [2] was 50 to 100% in each case. Moreover, in data set [3], the “YFM % Control (or Mortality) rating” value is on record as “D (No activity noticed in this bioassay)”.
